Experimental findings from article PMC8224453, “A New PqsR Inverse Agonist Potentiates Tobramycin Efficacy to Eradicate Pseudomonas aeruginosa Biofilms” (Advanced Science, 2021) are described below.

“And” between values parts separate entries of the source, which are not always exact repeats. Equal entries are not always repeated.

For series [1], the system named is PA14 wt biofilm. As to the kind of experiment: Minimum biofilm eradicating concentration (MBEC) assay. Type of series: cell-based, Pseudomonas aeruginosa. From the text:
page 21: wild type (PA14 wt) was purchased from DSMZ, the German Collection of Microorganism and Cell Cultures GmbH (PA14 = DSMZ19882) and cultured in minimal proteose peptone glucose ammonium salt (PPGAS) medium. […] KCl, 19 g/L Tris-HCl, 10 g/L peptone, 5 g/L glucose and 0.1 g/L MgSO4∙7H2O. The pH value […] Agar solution was […] resulting solution was sterilized before being plated. The minimum inhibitory concentration (IC) of drug-free SqNPs, compound 4 prepared either in dimethyl sulfoxide (DMSO) or loaded in SqNPs, free Tob, Tob-loaded SqNPs, and Tob and compound 4 co-loaded SqNPs against planktonic PA14 wt were determined by standard microbroth dilution assays in 96-well plates. PA14 wt suspension was prepared from mid-log cultures in PPGAS medium and […] PBS served as a control. […] The MBECs of free Tob, Tob-loaded SqNPs, free Tob plus free compound 4 prepared in DMSO, and Tob and compound (4) co-loaded SqNPs were determined by the MBEC assay as reported in previous study.[2,7] […] The biofilm-eradicating efficacy was assessed according to viable bacterial load determined using dilution in PBS/0.05% Tween20 and plating on agar S20 page 22: plates to count CFU after overnight incubation at […]. […] Using GraphPad Prism 8.4.2, the AUC was calculated for each condition. […] After a 24h treatment, efficacy was assessed by determination of colony-forming units per millilitre (CFU/mL). […]

The nature of series [2]: Cytotoxicity assay in HepG2. As to conditions: human, HepG2 cells, read-out: Cytotoxicity, viable cells. The class given is cell-based.
Procedure: Hep G2 or HEK293 cells (2 × 10^5 cells per well) were seeded in 24-well, flat-bottomed plates. Culturing of cells, incubations, and OD measurements were performed as described previously with slight modifications.[8] Twenty-four hours after seeding the cells, the incubation was started by the addition of test compound in a final DMSO concentration of
1%. […] At least two independent measurements were performed for each compound.
Series [3] relates to eDNA production in PA biofilm. As to the kind of experiment: Inhibition of eDNA production in biofilm. The class given is cell-based. As to conditions: Pseudomonas aeruginosa.
In series [4] the target is T1, Norepinephrine transporter (Homo sapiens, UniProt P23975).
T1 construct: Eurofins Discovery (SafetyScreen44 Panel, Cerep) P270
Briefly: CEREP off-target panel, antagonist radioligand. As to conditions: @10µM. The class given is binding. The procedure: (§1) 5. In vitro ADME/T and Safety Pharmacology
(§2) 5.1. CEREP off-targets assay
(§3) Experiments towards possible off-target effects were conducted following Eurofins Discovery protocol. Detailed information about the assays can be found in: https://www.eurofinsdiscoveryservices.com/catalogmanagement/viewitem/SafetyScreen44- […]
(§4) Table S3. Possible CEREP off-targets. entry off-target QSI 4 QSI 17 Assay
(§5) (%binding (%binding method
(§6) (1 picture or pasted object on this page, not shown here)

Series [5] deals with T2, Dopamine transporter (Homo sapiens, UniProt Q01959).
T2 construct: Eurofins Discovery (SafetyScreen44 Panel, Cerep) P270
Briefly: CEREP off-target panel, antagonist radioligand. The class given is binding. As to conditions: @10µM. As for the experimental part:
as §1, §2, §3, §4, §5, §6

In series [6] the test system is Ca2+ channel (L, dihydropyridine site). As to the kind of experiment: CEREP off-target panel, antagonist radioligand. Type of series: binding. As to conditions: @10µM. As for the experimental part: as §1, §2, §3, §4, §5, §6
The target in series [7] is T3, α1A receptor (Homo sapiens, UniProt P35348).
T3 construct: Eurofins Discovery (SafetyScreen44 Panel, Cerep) P270
As to the kind of experiment: CEREP off-target panel, antagonist radioligand. Type of series: binding. The settings on record: @10µM. The procedure:
as §1, §2, §3, §4, §5, §6

Series [8] deals with T4, β2 receptor (Homo sapiens, UniProt P07550).
T4 construct: Eurofins Discovery (SafetyScreen44 Panel, Cerep) P270
Briefly: CEREP off-target panel, antagonist radioligand. The settings on record: @10µM. The class given is binding. As for the experimental part: as §1, §2, §3, §4, §5, §6

For series [9], the system named is Na+ channel (site 2). As to the kind of experiment: CEREP off-target panel, antagonist radioligand. The settings on record: @10µM. Type of series: binding. As for the experimental part:
as §1, §2, §3, §4, §5, §6

T4 sequence (P07550 whole entry): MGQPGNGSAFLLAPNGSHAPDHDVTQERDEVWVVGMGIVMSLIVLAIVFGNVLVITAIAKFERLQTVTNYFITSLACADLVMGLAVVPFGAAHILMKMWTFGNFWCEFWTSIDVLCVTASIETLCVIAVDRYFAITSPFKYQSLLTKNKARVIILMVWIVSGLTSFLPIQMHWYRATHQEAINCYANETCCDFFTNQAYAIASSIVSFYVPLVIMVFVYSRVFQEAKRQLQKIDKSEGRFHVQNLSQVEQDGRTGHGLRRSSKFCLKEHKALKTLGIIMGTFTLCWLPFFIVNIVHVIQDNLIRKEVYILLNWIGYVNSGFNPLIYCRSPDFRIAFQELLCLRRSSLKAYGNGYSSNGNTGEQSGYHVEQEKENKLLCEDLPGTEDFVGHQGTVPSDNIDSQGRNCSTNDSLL
T1 sequence (P23975 whole entry): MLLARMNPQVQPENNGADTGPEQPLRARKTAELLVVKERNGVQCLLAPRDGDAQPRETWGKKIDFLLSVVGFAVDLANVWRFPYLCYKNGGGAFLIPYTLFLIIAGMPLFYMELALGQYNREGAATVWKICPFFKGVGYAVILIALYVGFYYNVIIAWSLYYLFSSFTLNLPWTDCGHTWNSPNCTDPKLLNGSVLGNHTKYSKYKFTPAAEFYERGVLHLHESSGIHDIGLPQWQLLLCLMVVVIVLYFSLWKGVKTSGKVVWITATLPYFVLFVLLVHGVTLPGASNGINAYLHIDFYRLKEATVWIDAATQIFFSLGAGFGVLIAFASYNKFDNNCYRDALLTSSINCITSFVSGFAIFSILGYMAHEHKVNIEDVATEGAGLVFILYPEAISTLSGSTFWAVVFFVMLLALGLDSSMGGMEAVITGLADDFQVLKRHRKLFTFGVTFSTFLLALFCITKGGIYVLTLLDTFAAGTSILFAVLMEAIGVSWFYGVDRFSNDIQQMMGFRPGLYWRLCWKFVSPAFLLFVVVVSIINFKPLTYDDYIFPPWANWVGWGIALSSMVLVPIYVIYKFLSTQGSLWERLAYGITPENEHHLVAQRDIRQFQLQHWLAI
T3 sequence (P35348 whole entry): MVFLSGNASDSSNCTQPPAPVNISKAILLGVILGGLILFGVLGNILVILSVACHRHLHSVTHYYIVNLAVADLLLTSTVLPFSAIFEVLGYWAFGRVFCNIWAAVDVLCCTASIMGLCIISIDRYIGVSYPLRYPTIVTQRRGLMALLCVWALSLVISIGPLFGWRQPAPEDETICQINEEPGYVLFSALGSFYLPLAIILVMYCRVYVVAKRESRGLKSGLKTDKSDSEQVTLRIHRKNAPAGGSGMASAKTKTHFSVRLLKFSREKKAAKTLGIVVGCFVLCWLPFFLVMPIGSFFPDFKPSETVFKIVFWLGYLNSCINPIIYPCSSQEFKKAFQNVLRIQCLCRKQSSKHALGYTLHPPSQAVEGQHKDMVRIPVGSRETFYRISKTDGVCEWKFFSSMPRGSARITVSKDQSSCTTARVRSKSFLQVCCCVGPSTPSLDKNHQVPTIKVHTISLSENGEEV
T2 sequence (Q01959 whole entry): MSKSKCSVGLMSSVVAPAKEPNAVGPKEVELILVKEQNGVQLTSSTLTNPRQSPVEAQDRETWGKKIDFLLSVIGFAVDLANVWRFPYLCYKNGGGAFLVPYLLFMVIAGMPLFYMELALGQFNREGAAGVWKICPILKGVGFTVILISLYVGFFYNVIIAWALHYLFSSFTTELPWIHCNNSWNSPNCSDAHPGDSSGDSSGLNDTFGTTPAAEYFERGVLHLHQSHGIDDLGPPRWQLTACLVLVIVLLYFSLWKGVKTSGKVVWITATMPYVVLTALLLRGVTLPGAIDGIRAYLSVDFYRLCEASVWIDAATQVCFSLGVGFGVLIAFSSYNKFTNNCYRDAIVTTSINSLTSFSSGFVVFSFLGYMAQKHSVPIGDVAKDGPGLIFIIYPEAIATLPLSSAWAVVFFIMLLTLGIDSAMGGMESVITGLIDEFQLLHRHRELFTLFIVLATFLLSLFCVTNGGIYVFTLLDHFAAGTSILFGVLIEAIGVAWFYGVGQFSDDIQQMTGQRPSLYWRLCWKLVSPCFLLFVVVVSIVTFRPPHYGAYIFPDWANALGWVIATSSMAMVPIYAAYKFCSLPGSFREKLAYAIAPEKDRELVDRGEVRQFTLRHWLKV

Consider `NC[C@H]1O[C@H](O[C@H]2[C@H](O)[C@@H](O[C@H]3O[C@H](CO)[C@@H](O)[C@H](N)[C@H]3O)[C@H](N)C[C@@H]2N)[C@H](N)C[C@@H]1O` [Tobramycin, tobramycin], for which, in [1] (PA14 wt biofilm, 24 h treatment, 4 constant at 20 × 10^−6 M where used), the “MBEC (Tob concentration for complete biofilm eradication)” value is reported as “higher than 200 µg mL^−1”.

Consider `COc1ccc(-n2cc(CNc3ccnc(C(F)(F)F)c3)nn2)cc1Cl` [Compound 17], for which the viability at 48 h, 75 × 10^−6 M in series [2] (HepG2, @75 × 10^−6 M) was 68%. For the same compound, inhibition in [3] was half-maximal at 1600 ± 1100 nM (IC50). Moreover, the “% binding, Norepinephrine transporter” value in [4] stood at 8.58%. Moreover, the “% binding, Dopamine transporter” value in series [5] is given as 28.91%. Further, the “% binding, Ca2+ channel (L, dihydropyridine site)” value in series [6] amounted to 30.36%. In addition, in series [7], the “% binding, α1A receptor” value was 55.42%. The “% binding, β2 receptor” value in series [8] is 85.3% and 85%. Besides, the “% binding, Na+ channel (site 2)” value in [9] is recorded as -27.90%.

`FC(F)(F)c1cc(NCc2cn(-c3ccc(Oc4ccccc4)cc3)nn2)ccn1` [Compound 4]: the viability at 48 h, 25 × 10^−6 M in series [2] (HepG2, @25 × 10^−6 M) was 55%. Further, in series [3], the half-maximal inhibitory concentration (IC50) (in general, the midpoint of a concentration-inhibition curve) came out at 220 ± 50 nM. In addition, in [1] (controls of the MBEC assay, compound 4 at 20 μM), the “PA14 wt biofilm inhibitory effect” value is “did not show any PA14 wt biofilm inhibitory effects”. Besides, the “% binding, Norepinephrine transporter” value in [4] is 82.52%. Further, the “% binding, Dopamine transporter” value in series [5] is on record as 97.25%. The “% binding, Ca2+ channel (L, dihydropyridine site)” value in series [6] turned out to be 78.29%. Besides, in [7], the “% binding, α1A receptor” value was found to be 40.59%. For the same compound, the “% binding, β2 receptor” value in series [8] is 18.03% and 18%. In [9], the “% binding, Na+ channel (site 2)” value is on record as 54.62%.
